Experimental data as given in patent US8759400B2, “Histone deacetylase inhibitors for enhancing activity of antifungal agents” (MethylGene Inc., priority 2005, dated 2014).
In brackets after ≈: the same amount, converted by molar mass. Several values for one entry are separate records, joined by “and”; a condition that tells them apart may be missing. Identical values can stand only once. Marks after values point to notes of the source that are not given here.

Legend:
C. glabrata = assay: Clinical isolates, CLSI M27-A2 broth microdilution and checkerboard; type: cell-based
Rhizopus arrhizus = assay: Clinical isolates of other fungal species, checkerboard; type: cell-based
C. krusei (14243) = assay: MIC and checkerboard synergy with azoles; type: cell-based, Candida krusei
Experimental: (§1) For susceptibility studies, overnight cultures of both Candida species are diluted 1:100 in YEPD medium, grown for 4 h at 30° C., counted in a hemocytometer, then diluted to a concentration of 5×10^3 cells/ml. […] Synergy, determined by the checkerboard method, is defined as a decrease in MIC of antifungal agent that is more than additive of the MIC of the histone deacetylase inhibitor and the antifungal agent alone.

A. niger = assay: Clinical isolates, CLSI M38-A broth microdilution and checkerboard; type: cell-based
C. albicans (ATCC 90028) = assay: MIC80 and checkerboard synergy with antifungal agents; type: cell-based, Candida albicans; conditions: for Conc. Cpd 4 for 4-fold decrease: C. albicans; for Cpd 4 Conc for 4-fold synergy: C. albicans (90028)
Mucor Sp. = assay: Clinical isolates of other fungal species, checkerboard; type: cell-based
Aspergillus fumigatus = assay: as above; type: cell-based
C. krusei = assay: Clinical isolates, CLSI M27-A2 broth microdilution and checkerboard; type: cell-based; conditions: for minimum Compound 4 concentration at which Compound 4 alone inhibited growth (number in brackets): C. krusei clinical isolates
Paecilomyces lilacinus = assay: Clinical isolates of other fungal species, checkerboard; type: cell-based
C. glabrata (ATCC 90030) = assay: MIC80 and checkerboard synergy with antifungal agents; type: cell-based, Candida glabrata; conditions: for Cpd 4 Conc for 4-fold synergy: C. glabrata (90030)
Coccidioides immitis = assay: microbe, parasite or virus in culture; type: cell-based
A. fumigatus ATCC 1022 = assay: MIC80 and checkerboard synergy, broth microdilution (NCCLS M38-A); type: cell-based, Aspergillus fumigatus
C. albicans = assay: Immunocompromised mouse model of systemic candidiasis; type: in vivo; conditions: compound 4 at 2-10 mg/kg i.p. daily with ketoconazole 20 mg/kg i.p. daily, 7 days; immunocompromised mice; FIG. 4
Experimental: The standard method for the mouse candidiasis studies is as follows. Female CD-1 mice are immunocompromised by injecting 240 mg/kg cyclophosphamide on day -3 then 80 mg/kg cyclophosphamide on days 1 and 5. C. albicans is grown in Sabouraud agar, cells are resuspended in 0.9% saline and counted in a hemacytometer. […] Mice are treated with ketoconazole +/− test compound daily for seven days, starting one day after the infection. They are monitored daily for weight loss and death. Mice are sacrificed on day 8 and the kidneys are removed and homogenized and fungal load (CFU) per pair of kidneys determined.

C. tropicalis = assay: Clinical isolates, CLSI M27-A2 broth microdilution and checkerboard; type: cell-based
HMEC = assay: Mammalian cytotoxicity, MTT reduction
Trichosporon = assay: Clinical isolates of other fungal species, checkerboard; type: cell-based
Histoplasma = assay: microbe, parasite or virus in culture; type: cell-based
Pseudallescheria boydii = assay: Clinical isolates of other fungal species, checkerboard; type: cell-based
Candida spp. = assay: Clinical isolates, checkerboard, summary over 45 isolates; type: cell-based; conditions: for isolates with synergy / isolates tested: 45 clinical isolates of Candida spp.
C. tropicalis (750) = assay: MIC and checkerboard synergy with azoles; type: cell-based, Candida tropicalis
Experimental: as §1

C. lusitaniae = assay: Clinical isolates, CLSI M27-A2 broth microdilution and checkerboard; type: cell-based
HDAC = HDAC inhibitory activity in fungal protoplasts (Fluor-de-Lys); type: cell-based, Candida albicans; conditions: C. albicans protoplasts
Experimental: Protoplasts of C. albicans and C. glabrata are prepared by the […] method of Franzusoff et al.

[1] = Rhizopus arrhizus, *Synergy occurs at ½ MIC of Cpd 4
[2] = Paecilomyces lilacinus, *Synergy occurs at ½ MIC of Cpd 4
[3] = Trichosporon, **MIC of azole <0.06 μg/ml, too low to determine synergistic concentration

O=C(Cc1ccc(CCCCc2ccccc2)cc1)NO [Cpd 4]
Conc. Cpd 4 for 4-fold decrease (C. glabrata; 4-fold reduction of FLU MIC, C. glabrata clinical isolates): 0.5 µg/mL
Conc. Cpd 4 for 4-fold decrease (C. glabrata; 4-fold reduction of VOR MIC, C. glabrata clinical isolates): 0.5 µg/mL
FLU/Cpd 4 FIC (C. glabrata; Cpd 4 with fluconazole, C. glabrata clinical isolates): 0.5
VOR/Cpd 4 FIC interpretation (C. glabrata; Cpd 4 with voriconazole, C. glabrata clinical isolates): (S) (S = synergy)
minimum Compound 4 concentration at which Compound 4 alone inhibited growth (number in brackets) (C. glabrata; FLU checkerboard, C. glabrata clinical isolates): 0.5 µg/mL
minimum Compound 4 concentration at which Compound 4 alone inhibited growth (number in brackets) (C. glabrata; VOR checkerboard, C. glabrata clinical isolates): 0.5 µg/mL
Compound 4 concentration for 4-fold reduction in azole MIC (C. glabrata; all 14 C. glabrata clinical isolates (9 FLU-R)): < 0.5 µg/mL
MIC (Rhizopus arrhizus; Rhizopus arrhizus clinical isolates, read-out: Cpd 4 MIC): > 8 µg/mL
Synergy with Cpd 4 (strains showing synergy/total strains tested) Itraconazole (Rhizopus arrhizus; [1]): 2/3*
Synergy with Cpd 4 (strains showing synergy/total strains tested) Voriconazole (Rhizopus arrhizus; [1]): 2/3*
MIC (C. krusei (14243); Pichia kudriavzevii, read-out: Cpd 4 MIC): 3.1 to 6.3 µg/mL
Cpd 4 Conc for 4-fold synergy (C. krusei (14243); with itraconazole): 0.39 µg/mL
Cpd 4 Conc for 4-fold synergy (C. krusei (14243); with ketoconazole): 0.39 µg/mL
Cpd 4 Conc for 4-fold synergy (C. krusei (14243); with voriconazole): 0.39 µg/mL
ITR/Cpd 4 FIC (A. niger; Cpd 4 with itraconazole): 0.5
VOR/Cpd 4 FIC (A. niger; Cpd 4 with voriconazole): 0.5
minimum Compound 4 concentration at which Compound 4 alone inhibited growth (number in brackets) (A. niger; ITR checkerboard): 4.0 µg/mL
minimum Compound 4 concentration at which Compound 4 alone inhibited growth (number in brackets) (A. niger; VOR checkerboard): 2.0 µg/mL
Conc. Cpd 4 for 4-fold decrease (C. albicans (ATCC 90028); 4-fold decrease of nikkomycin MIC): 1.563 µg/mL
Conc. Cpd 4 for 4-fold decrease (C. albicans (ATCC 90028); 4-fold decrease of terbinafine MIC): 0.78 µg/mL
MIC (C. albicans (ATCC 90028); Candida albicans, ATCC90028, compound alone, C. albicans (ATCC 90028), read-out: MIC80): 0.8 µg/mL
Cpd 4 Conc for 4-fold synergy (C. albicans (ATCC 90028); with itraconazole): 0.024 µg/mL
Cpd 4 Conc for 4-fold synergy (C. albicans (ATCC 90028); with voriconazole): 0.39 µg/mL
Synergy with Cpd 4 (strains showing synergy/total strains tested) Itraconazole (Mucor Sp.; Mucor Sp.): 1/3
Synergy with Cpd 4 (strains showing synergy/total strains tested) Voriconazole (Mucor Sp.; Mucor Sp.): 0/3
MIC (Mucor Sp.; Mucor Sp. clinical isolates, read-out: Cpd 4 MIC): 8 µg/mL
MIC (Aspergillus fumigatus; Aspergillus fumigatus clinical isolates, read-out: Cpd 4 MIC): 4 to 8 µg/mL
Synergy with Cpd 4 (strains showing synergy/total strains tested) Itraconazole (Aspergillus fumigatus; Aspergillus fumigatus, *Synergy occurs at ½ MIC of Cpd 4): 2/3*
Synergy with Cpd 4 (strains showing synergy/total strains tested) Voriconazole (Aspergillus fumigatus; Aspergillus fumigatus, †2-fold synergy obtained): 2/3^†
FLU/Cpd 4 FIC interpretation (C. krusei; Cpd 4 with fluconazole, C. krusei clinical isolates and QC 6258): (S) (S = synergy)
VOR/Cpd 4 FIC (C. krusei; Cpd 4 with voriconazole, C. krusei clinical isolates and QC 6258): 0.6 and 0.5 and 0.3
minimum Compound 4 concentration at which Compound 4 alone inhibited growth (number in brackets) (C. krusei; FLU checkerboard): 0.5 µg/mL
minimum Compound 4 concentration at which Compound 4 alone inhibited growth (number in brackets) (C. krusei; VOR checkerboard): 0.25 µg/mL and 0.5 µg/mL
Synergy with Cpd 4 (strains showing synergy/total strains tested) Itraconazole (Paecilomyces lilacinus; [2]): 2/3*
Synergy with Cpd 4 (strains showing synergy/total strains tested) Voriconazole (Paecilomyces lilacinus; [2]): 2/3*
MIC (Paecilomyces lilacinus; Purpureocillium lilacinum, Paecilomyces lilacinus clinical isolates, read-out: Cpd 4 MIC): 4 µg/mL
Conc. Cpd 4 for 4-fold decrease (C. glabrata (ATCC 90030); 4-fold decrease of fenpropimorph MIC, C. glabrata): 0.78 µg/mL
MIC (C. glabrata (ATCC 90030); Nakaseomyces glabratus, ATCC90030, compound alone, C. glabrata (ATCC 90030), read-out: MIC80): 6.25 µg/mL
concentration at which Compound 4 synergizes with fenpropimorph (C. glabrata (ATCC 90030); against C. glabrata): 2 µg/mL
Cpd 4 Conc for 4-fold synergy (C. glabrata (ATCC 90030); with itraconazole): 0.2 µg/mL
Cpd 4 Conc for 4-fold synergy (C. glabrata (ATCC 90030); with ketoconazole): 0.25 µg/mL
Cpd 4 Conc for 4-fold synergy (C. glabrata (ATCC 90030); with voriconazole): 0.39 µg/mL
Synergy with Cpd 4 (strains showing synergy/total strains tested) Voriconazole (Coccidioides immitis): 0/3**
Synergy with Cpd 4 (strains showing synergy/total strains tested) Itraconazole (Coccidioides immitis; Coccidioides immitis): 2/3
MIC (Coccidioides immitis; Coccidioides immitis, read-out: Cpd 4 MIC): 0.25 µg/mL (≈ 0.882 µM)
MIC (A. fumigatus ATCC 1022; Aspergillus fumigatus, ATCC1022, A. fumigatus (1022), read-out: Cpd 4 MIC): 2 to 5 µg/mL
Cpd 4 Conc for 4-fold synergy (A. fumigatus ATCC 1022; with itraconazole, A. fumigatus (1022)): 5 µg/mL
Cpd 4 Conc for 4-fold synergy (A. fumigatus ATCC 1022; with ketoconazole, A. fumigatus (1022)): 2.5 µg/mL
conc. for 4-fold synergy (A. fumigatus ATCC 1022; with ketoconazole, A. fumigatus ATCC 1022, 48 hours): 0.5 µg/mL
Cpd 4 Conc for 4-fold synergy (A. fumigatus ATCC 1022; with voriconazole, A. fumigatus (1022)): 5 µg/mL
effect on the activity of ketoconazole (fungal load, CFU per pair of kidneys) (C. albicans): enhancing (i.e., synergistic) effect
Conc. Cpd 4 for 4-fold decrease (C. tropicalis; 4-fold reduction of FLU MIC): 0.5 µg/mL
VOR/Cpd 4 FIC interpretation (C. tropicalis; Cpd 4 with voriconazole): (S) (S = synergy)
MTT HMEC (HMEC): 13 µM
MIC (Trichosporon; Trichosporon clinical isolates, read-out: Cpd 4 MIC): 0.125 to 0.5 µg/mL
Synergy with Cpd 4 (strains showing synergy/total strains tested) Itraconazole (Trichosporon; [3]): 1/3**
Synergy with Cpd 4 (strains showing synergy/total strains tested) Voriconazole (Trichosporon; [3]): 0/3**
Synergy with Cpd 4 (strains showing synergy/total strains tested) Itraconazole (Histoplasma): 0/3
Synergy with Cpd 4 (strains showing synergy/total strains tested) Voriconazole (Histoplasma): 0/3
MIC (Histoplasma; read-out: Cpd 4 MIC): 1 to 2 µg/mL (≈ 3.53 to 7.06 µM)
Synergy with Cpd 4 (strains showing synergy/total strains tested) Itraconazole (Pseudallescheria boydii; Pseudallescheria boydii): 0/3
Synergy with Cpd 4 (strains showing synergy/total strains tested) Voriconazole (Pseudallescheria boydii; Pseudallescheria boydii): 0/3
MIC (Pseudallescheria boydii; Scedosporium boydii, Pseudallescheria boydii clinical isolates, read-out: Cpd 4 MIC): 2 µg/mL
in vitro antagonism of Compound 4-azole combination (Candida spp.; Candida spp. clinical isolates): none of the isolates tested
isolates with synergy / isolates tested (Candida spp.; Compound 4 with FLU): 34/45
isolates with synergy / isolates tested (Candida spp.; Compound 4 with VOR): 37/45
MIC (C. tropicalis (750); Candida tropicalis, read-out: Cpd 4 MIC): > 50 µg/mL
Cpd 4 Conc for 4-fold synergy (C. tropicalis (750); with itraconazole): 0.2 µg/mL
Cpd 4 Conc for 4-fold synergy (C. tropicalis (750); with ketoconazole): 0.2 µg/mL
Cpd 4 Conc for 4-fold synergy (C. tropicalis (750); with voriconazole): 0.39 µg/mL
FLU/Cpd 4 FIC (C. lusitaniae; Cpd 4 with fluconazole): <0.1
FLU/Cpd 4 FIC interpretation (C. lusitaniae; Cpd 4 with fluconazole): (S) (S = synergy)
VOR/Cpd 4 FIC interpretation (C. lusitaniae; Cpd 4 with voriconazole): (S) (S = synergy)
minimum Compound 4 concentration at which Compound 4 alone inhibited growth (number in brackets) (C. lusitaniae; VOR checkerboard): 4 µg/mL
HDAC inhibition IC50 (HDAC): >20 µg/mL
